Results on 10 compounds are retold here after ChEMBL document CHEMBL1201862, “PubChem BioAssay data set” (2004).

Among the test systems are A498; CCRF-CEM; EKVX; HCC 2998; HL-60; HT-29; K562; LOX IMVI; MOLT-4; NCI-H226; NCI-H460; RPMI-8226; RXF 393; SF-539; SK-MEL-2; SNB-19; SF-268; TK-10; U-251; UO-31.
Assay in all cases: growth of human tumour cells (NCI), 48 h

Each structure is given as a SMILES string.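 Growth conditions: 96-well plates. Treatment: test compound, 48 hours, 5 concentrations. Analysis: linear interpolation between bracketing concentrations; unreached endpoints set to highest concentration. GI50 marks 50% less growth.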 Activity calls are given as the source filed them. Cut-off read from the data, not from the text of the source: active = GI50 up to about 1.1 µM and inactive = higher.

`CCCSc1nc(COC(=O)NC)c(COC(=O)NC)n1C`: the GI50 in the assay on A498 was > 62.7 µM (inactive); in the assay on CCRF-CEM, 20.7 µM (inactive); in the assay with EKVX it was > 100 µM (inactive); in the assay with HCC 2998 it was > 100 µM (inactive); in the assay with HL-60 it was 43.9 µM (inactive); in the assay with HT-29, > 100 µM (inactive). Also, the GI50 in the assay on K562 is 31.4 µM (inactive); in the assay with LOX IMVI, > 100 µM (inactive); with MOLT-4, 27.7 µM (inactive); with NCI-H226, > 100 µM (inactive); in the assay on NCI-H460, 54.7 µM (inactive); in the assay on RPMI-8226 it was 42 µM (inactive). Besides, the GI50 was 37.4 µM (inactive) with RXF 393, > 100 µM (inactive) with SF-539, > 100 µM (inactive) with SK-MEL-2 and > 100 µM (inactive) with SNB-19.

Take `O=C(CCc1ccc(O)c(O)c1)OCCc1ccccc1`: the GI50 is > 100 µM (inactive) in the assay on A498; 4.86 µM (inactive) in the assay with CCRF-CEM; > 100 µM (inactive) with EKVX; > 100 µM (inactive) in the assay on HCC 2998; 3.85 µM (inactive) in the assay on HL-60; > 100 µM (inactive) in the assay on HT-29. Also, the GI50 with K562 is 20.4 µM (inactive); in the assay with LOX IMVI, 22.5 µM (inactive); in the assay with MOLT-4 it was 15.1 µM (inactive); with NCI-H226 it was > 100 µM (inactive); with NCI-H460 it was > 100 µM (inactive); in the assay on RPMI-8226 it was 18.9 µM (inactive). The GI50 in the assay on RXF 393 was > 67 µM (inactive); in the assay with SF-268, > 100 µM (inactive); in the assay on SF-539 it was 18.6 µM (inactive); in the assay with SK-MEL-2, > 100 µM (inactive); with SNB-19, > 100 µM (inactive); with TK-10, > 100 µM (inactive). Besides, the values for the GI50 in the assay on U-251 and with UO-31 were > 100 µM (inactive) and > 80.9 µM (inactive), respectively.

Consider `Cc1cc(S(=O)(=O)Nc2nncn2-c2ccc(Cl)cc2)c(S)cc1Cl`, for which the GI50 with A498, in the assay on CCRF-CEM, in the assay with EKVX, with HCC 2998, in the assay with HL-60 and in the assay on HT-29 was > 10 µM (inactive) each time. In addition, the GI50 in the assay with K562, in the assay on LOX IMVI, in the assay with MOLT-4, in the assay on NCI-H226, in the assay with NCI-H460 and in the assay on RPMI-8226 was > 10 µM (inactive) throughout. Moreover, the GI50 in the assay with RXF 393, in the assay on SF-268, in the assay on SF-539, with SK-MEL-2, with SNB-19 and in the assay on TK-10 was > 10 µM (inactive) each time. The GI50 in the assay with U-251 is > 10 µM (inactive).

As to `COC(=O)C(=O)C(C(=O)OC)C(=O)C(=O)Nc1cc(Cl)c(Cl)cc1Cl` (stereo unspecified), the GI50 was > 100 µM (inactive) in the assay with A498; 31.6 µM (inactive) in the assay on CCRF-CEM; > 100 µM (inactive) in the assay with EKVX; > 100 µM (inactive) in the assay on HCC 2998; > 100 µM (inactive) in the assay on HL-60; 49.8 µM (inactive) in the assay with HT-29. Further, the GI50 in the assay with K562 is > 100 µM (inactive); in the assay with LOX IMVI, 61 µM (inactive); in the assay with MOLT-4 it was > 100 µM (inactive); with NCI-H226, > 100 µM (inactive); in the assay on NCI-H460 it was > 100 µM (inactive); in the assay with RPMI-8226, 24.9 µM (inactive). In addition, the GI50 with RXF 393, with SF-268, with SF-539, in the assay with SK-MEL-2, in the assay with SNB-19 and in the assay on TK-10 was > 100 µM (inactive) each time. In addition, the GI50 in the assay on U-251 and in the assay with UO-31 was > 100 µM (inactive) each time.

For the compound `O=[N+]([O-])/C=C/c1cn(CCCCCCCCn2cc(/C=C/[N+](=O)[O-])c3ccccc32)c2ccccc12`, the GI50 with A498 is > 10 µM (inactive); in the assay with CCRF-CEM, > 10 µM (inactive); in the assay on EKVX it was > 10 µM (inactive); in the assay with HCC 2998 it was 7.59 µM (inactive); in the assay with HL-60, > 10 µM (inactive); in the assay with HT-29, > 10 µM (inactive). The GI50 in the assay on K562 is > 10 µM (inactive); in the assay with LOX IMVI, 3.51 µM (inactive); in the assay with MOLT-4, > 10 µM (inactive); with NCI-H226, > 10 µM (inactive); in the assay on NCI-H460, > 10 µM (inactive); in the assay on RPMI-8226, 0.41 µM (active). Also, the GI50 in the assay with RXF 393, in the assay with SF-268, in the assay with SF-539, in the assay with SK-MEL-2, in the assay on SNB-19 and with TK-10 was > 10 µM (inactive) each time. In addition, the GI50 in the assay with UO-31 was > 10 µM (inactive).

As to `Cc1ccc(-c2nnc3s/c(=C\c4ccc(N(C)C)cc4)c(=O)n23)cc1`, the GI50 is 89.9 µM (inactive) in the assay on A498; > 100 µM (inactive) in the assay on CCRF-CEM; > 100 µM (inactive) with EKVX; > 100 µM (inactive) with HCC 2998; > 100 µM (inactive) in the assay with HL-60; > 10 µM (inactive) with K562. The GI50 in the assay with LOX IMVI, with MOLT-4, in the assay on NCI-H226, with NCI-H460, in the assay with RPMI-8226 and in the assay with RXF 393 was > 100 µM (inactive) throughout. Besides, the GI50 with SF-268, in the assay with SF-539, in the assay with SK-MEL-2, in the assay with SNB-19, in the assay with TK-10 and with U-251 was > 100 µM (inactive) throughout. Further, in the assay on UO-31, the GI50 was > 100 µM (inactive).

Take `O=S(=O)(N/N=C/c1c(Cl)cccc1Cl)c1ccccc1`: the GI50 was > 100 µM (inactive) in the assay on A498; 66.1 µM (inactive) in the assay on CCRF-CEM; > 100 µM (inactive) with EKVX; > 100 µM (inactive) in the assay with HCC 2998; 29.9 µM (inactive) in the assay on HL-60; > 100 µM (inactive) in the assay on HT-29. In addition, the GI50 with K562 is > 100 µM (inactive); in the assay with LOX IMVI, > 100 µM (inactive); in the assay with MOLT-4, 91.4 µM (inactive); in the assay on NCI-H226, > 100 µM (inactive); in the assay on NCI-H460, > 100 µM (inactive); in the assay with RPMI-8226, > 100 µM (inactive). For the same compound, the GI50 in the assay on RXF 393 is 55.5 µM (inactive); with SF-268, > 100 µM (inactive); in the assay with SF-539, > 100 µM (inactive); in the assay with SK-MEL-2 it was > 100 µM (inactive); in the assay with TK-10 it was > 100 µM (inactive); with U-251, 50.7 µM (inactive). The GI50 with UO-31 was > 100 µM (inactive).

Turning to `COc1ccc(-c2c3c([nH]c(=S)c2C#N)CC(C)(C)CC3=O)cc1`, the GI50 in the assay with A498 is 55.6 µM (inactive); with CCRF-CEM, 56.2 µM (inactive); with EKVX it was > 100 µM (inactive); in the assay on HCC 2998 it was > 100 µM (inactive); in the assay on HL-60, > 100 µM (inactive); in the assay on HT-29, > 100 µM (inactive). For the same compound, the GI50 in the assay on K562 is 61.7 µM (inactive); in the assay with LOX IMVI, > 100 µM (inactive); in the assay with MOLT-4, > 100 µM (inactive); with NCI-H226, > 100 µM (inactive); in the assay on NCI-H460, > 100 µM (inactive); with RPMI-8226 it was > 100 µM (inactive). For the same compound, the GI50 in the assay on RXF 393, with SF-268, in the assay on SF-539, in the assay with SK-MEL-2, in the assay with SNB-19 and in the assay with TK-10 was > 100 µM (inactive) in each case. Besides, the GI50 in the assay on U-251 and in the assay with UO-31 was > 100 µM (inactive) throughout.

Turning to `Cc1cccc(C)c1NC(=O)C(=O)C1C(=O)N(c2ccccc2)N=C1N` (stereo unspecified), the GI50 with A498, with CCRF-CEM, in the assay on EKVX, with HCC 2998, in the assay on HL-60 and in the assay with HT-29 was > 100 µM (inactive) throughout. In addition, the GI50 in the assay on K562, with LOX IMVI, with MOLT-4, in the assay on NCI-H226, in the assay with NCI-H460 and in the assay on RPMI-8226 was > 100 µM (inactive) each time. In addition, the GI50 with RXF 393, in the assay with SF-268, in the assay on SF-539, in the assay with SK-MEL-2, in the assay with SNB-19 and in the assay with TK-10 was > 100 µM (inactive) throughout. Moreover, the GI50 with U-251 and with UO-31 was > 100 µM (inactive) each time.

In the case of `CN(C)C(=S)SCC(N)=O`, the GI50 in the assay on A498, with CCRF-CEM, in the assay on EKVX, in the assay with HCC 2998, with HL-60 and in the assay on HT-29 was > 100 µM (inactive) each time. Also, the GI50 is > 100 µM (inactive) in the assay on K562; > 100 µM (inactive) in the assay on LOX IMVI; > 100 µM (inactive) with MOLT-4; 45.3 µM (inactive) in the assay on NCI-H226; > 100 µM (inactive) with NCI-H460; > 100 µM (inactive) in the assay on RPMI-8226. The GI50 with RXF 393, in the assay with SF-268, with SF-539, in the assay on SK-MEL-2, in the assay with SNB-19 and in the assay on TK-10 was > 100 µM (inactive) throughout. For the same compound, the GI50 in the assay on U-251 was > 100 µM (inactive).
